Literature values, collected in US20190343122A1, “IMPROVED INSECT CONTROL STRATEGIES UTILIZING PHEROMONES AND RNAI” (Provivi, Inc., priority 2016, published 2019).

Assays:
aphids = conditions: in vivo
E. heros = conditions: female E. heros
target genes of pests = conditions: Noctuidae Spodoptera exigua

**Q.** For `CCCCCCC=O` [Heptanal], which “attractiveness of an oviposition substrate” value (mated H. armigera) is on record?
**A.** significantly increase the attractiveness

**Q.** Which effectiveness against aphids (aphids) does the source give for `CNC(=O)Oc1cccc2ccccc12` [Sevin, carbaryl] here?
**A.** not effective against many aphids

**Q.** For `CCCC(C)CCCC(C)CCCC(C)C(=O)OC` (centres unmarked) [TMTD, methyl 2,6,10-trimethyltridecanoate], which attraction to lures (E. heros) is on record?
**A.** attracted

**Q.** With `O=Cc1ccccc1` [benzaldehyde] as the compound, how does the “attractiveness of an oviposition substrate” value (mated H. armigera) read?
**A.** significantly increase the attractiveness

**Q.** For PGCP, which Larval mortality (target genes of pests) is on record?
**A.** Larval mortality increased
